Common to all, as to type: in vivo
Assay [1] deals with Balb/c mice. The experiment in a line: Leukocyte subpopulations in BALF of rDp2-sensitized mice after local nasal immunotherapy (LNIT). The conditions noted are these: for Eosinophil / Lymphocyte / Macrophage / Neutrophil / Total cell: BALF; for anti-inflammatory effect on airway inflammation: Example 1, BALF inflammatory cells compared to the NS groups. As for the experimental part:
Male Balb/c mice were obtained from the National Laboratory Breeding Research Center in Taiwan and were raised in a specific pathogen-free environment. The mice used were between six and eight weeks of age. Groups of six mice were caged separately according to their treatment. Recombinant Dermatophoides pteronyssinus group 2 (rDp2) was prepared as previously described(Tsai J J, et al. Int Arch Allergy Immunol 2000;121:205-10). Dp2 28-40 and Dp2 28-40A were obtained from Dr. Jonathan Lamb (Respiratory Medicine Unit, Edinburgh University, Medical School, Edinburgh, UK) (Verhoef A, and Lamb J R. J Immunol 2000;164:6034-6040). FIP was obtained from Dr. Ko Jiunn-Liang (Institute of Toxicology, Chung Shan Medical University, Taichung, R O C) (J L Ko, et al. Eur. J. Biochem. 1995;228:244-249).
(§1) Mice were immunized by way of an intraperitoneal (IP) injection of 1 μg/0.1 mL rDp2 emulsified in 4.0 mg/0.062mL aluminum hydroxide Al(OH)3 (Whitehall Lab Ltd. Punchbowl, NSW, Australia) on day 0 and day 7. Following immunization, local nasal immunotherapy (LNIT) was conducted daily from day 14 to day 35 with Dp2 28-40, Dp2 28-40A, FIP alone or FIP mixed with either Dp2 28-40 or Dp2 28-40A (FIP, 50 μg/mouse/day; Dp2 peptide, 1 μg/20 μL) in PBS with 10% glycerol. Normal saline (NS) and irrelevant allergen Bt were used as a negative control. […] On day 28, mice were lightly anesthetized with an IP injection of 60 mg/kg of sodium pentobarbital (Sigma Chemical Co., St Louis, Mo., U.S.A.) and inoculated intratracheally (IT) with 1 μg/50 μL of rDp 2 on day 28 and day 35. Two days subsequent to the second IT inoculation, the mice were sacrificed following the assessment of their pulmonary function (FIG. 1).
Subsequent to pulmonary function measurement having been completed, bronchoalveolar lavage (BAL) was performed using the following procedure. BAL fluids were collected with lmL sterile endotoxin-free saline washes of each lung via the trachea for each mouse. BAL cells were washed once with PBS by centrifugation at 200×g at 4° C. Subsequent to washing, the cells were resuspended in RPMI-1640 (Sigma Chemical Co.). The total leukocyte count in BAL fluids was determined using a hemocytometer. The BAL fluids were aspirated and stored at −70° C. until needed for assay purposes. Subsequent to total leukocyte counting, a cytospin preparation of 100 μL BAL fluids (2×10^5 cells/mL) was conducted, the cells being cytocentrifuged directly onto glass slides at 350 r.p.m. for five minutes using a Cytospin 3 cytocentrifuge (Shandon Scientific Limited, Astmoor, Runcorn, UK), and then stained with Liu stain (Tonyar Diagnostic Inc, Taipei & Hien, Taiwan). The differential counts were performed for a total of 200 leukocyte cells.

Assay [2] has as its system Balb/c mice. The experiment in a line: Pulmonary function: airway hypersensitivity to methacholine (Penh, barometric plethysmograph) after LNIT. The conditions noted are these: compared to NS; for Penh after methacholine challenge, early phase: Example 1, FIG. 5A, 30 min after rDp2 IT challenge; for Penh after methacholine challenge, late phase: Example 1, FIG. 5B, 24hrs after rDp2 IT challenge. As for the experimental part: as §1
Each mouse was placed inside a barometric plethysmograph (Buxco Electronics, Troy, N.Y.). The plethysmograph has two chambers: one is the main or animal chamber (ID 7.5 cm and 5.5 cm height) and the other is the reference chamber (ID 7.5 cm and 3.5 cm height). A differential pressure transducer was employed to detect the pressure difference between the two chambers. The pressure signal was amplified, digitized via an A/D convert card, and sent to a computer with a BioSystem XA program (Buxco, Electronics, Troy, N.Y.), which sampled and calculated the desired respiratory parameters. These parameters were enhanced pause (Penh), tidal volume, breathing frequency, peak inspiratory flow, peak expiratory flow, end-inspiratory pause, and end-expiratory pause.
Aerosol was generated by placing 5 mL of saline or methacholine (Sigma, 1.56 to 25.00 mg/mL) solution in the cup of an ultrasonic nebulizer (DeVilbiss, Somerset, Pa.). It was delivered via a connecting tube and a three-way connector to the animal chamber of the plethysmograph (Hamelmann E, et al. Am J Respir Crit Care Med. 1997;156:766-75). The median size of the aerosol was approximately 3 μm and the range of the sizes was from 1 to 5 μm, according to the manufacturers information. The aerosol usually filled the chamber within 15-20 sec. At first, each mouse inhaled saline aerosol for 3 min. Then the respiratory parameters were measured for 3 min. Then, inhalation of the saline aerosol was replaced by inhalation of the aerosol of methacholine solution for 3 min. In both cases, the aerosol in the chamber was cleared immediately after the exposure. Respiratory parameters were then measured for 3 min following the inhalation of methacholine. A dose-response curve for methacholine was calculated starting from a low dose of 0.031 mg/dL and moving to a higher dose of 25 mg/dL. There was a 15 min interval between exposures. The percentage changes of Penh obtained from each dose of mechacholine were accumulated area under the curve and the values were calculated as means±SEM. Differences in parameters among groups were analyzed by variance.

For assay [3], the system named is Balb/c mice. As to the kind of experiment: Free radical production in BALF (chemiluminescence) after LNIT. The conditions noted are these: FIG. 4, chemiluminescence, expressed as counts/10 seconds, compared to NS control. The method, then:
as §1
Using chemiluminescence, free radicals in the BAL fluid were measured immediately after each experiment. The total amounts of free radical were detected and expressed as counts/10 seconds.

Where [4] appears, read: Example 1, LNIT day 14-35, rDp2 IT challenge, mean ± SEM of six animals.
[5] abbreviates: Example 2 (FIP study), mean ± SEN of six mice.

Marks after values point to notes of the source that are not given here.

Regarding “Dp2 28-40A: altered TCR ligand of Dp2 28-40, residues at positions 34 and 36 substituted by alanine; amino acid sequence ID No. 2 (IIHRGKAFALEAV; listed as Dermatophoides pteronyssinus)”, in the assay on Balb/c mice [1] (setting [4]), the Eosinophil is reported as 3.0 ± 1.0* 10^4 cells/mL, the Lymphocyte was 14.6 ± 3.3* 10^4 cells/mL, the Macrophage is reported as 38.4 ± 7.2* 10^4 cells/mL and the Neutrophil is on record as 8.2 ± 1.1* 10^4 cells/mL. For the same molecule, the Total cell in the assay on Balb/c mice [1] (setting [4]) was 65.0 ± 3.2* 10^4 cells/mL. Moreover, the “anti-inflammatory effect on airway inflammation” value in the assay on Balb/c mice [1] is given as “weaker than Dp2 28-40”. For the same molecule, in the assay with Balb/c mice [2], the “Penh after methacholine challenge, early phase” value was “significantly decreased” and the “Penh after methacholine challenge, late phase” value is reported as “significantly decreased”.
In the case of “Dp2 28-40: Dermatophoides pteronyssinus group 2 (Dp2) epitope peptide, residues 28-40, amino acid sequence ID No. 1 (IIHRGKPFQLEAV; listed as Dermatophoides pteronyssinus)”, in the assay with Balb/c mice [1] (setting [4]), the Eosinophil was 3.5 ± 0.5* 10^4 cells/mL, the Lymphocyte is 11.8 ± 0.8* 10^4 cells/mL, the Macrophage was 31.0 ± 2.5* 10^4 cells/mL and the Neutrophil is listed as 7.2 ± 1.5* 10^4 cells/mL. Moreover, the Total cell in the assay with Balb/c mice [1] (setting [4]) is on record as 53.3 ± 4.1* 10^4 cells/mL. In addition, the “anti-inflammatory effect on airway inflammation” value in the assay on Balb/c mice [1] was “best anti-inflammatory effect”. In addition, in the assay on Balb/c mice [2], the “Penh after methacholine challenge, early phase” value is on record as “significantly decreased” and the “Penh after methacholine challenge, late phase” value was “significantly decreased”. Besides, the “free radical production in the BAL fluid” value in the assay with Balb/c mice [3] is given as “significantly inhibited”.

B1: FIP: fungal immunomodulatory protein isolated from Flammalina velutipes, amino acid sequence ID No. 3 (protein)
chain: SATSLTFQLAVLVKKIDFDYTPNWGRGTPSSYIDNLTFPKVLTDKKYSYRVVVNGSDLGVESNFAVTPSGGQTINFLQYNKGYGVADTKTIQVFVVIPDTGNSEEYIIAEWKKT
modifications: Flammalina velutipes
As for B1, in the assay on Balb/c mice [1] (setting [5]), the Eosinophil is given as 6.3 ± 1.3 ×10^4/mL, the Lymphocyte is given as 13.0 ± 1.8 ×10^4/mL, the Macrophage was 37.0 ± 7.4 ×10^4/mL and the Neutrophil is listed as 9.0 ± 2.4 ×10^4/mL. Also, the Total cell in the assay on Balb/c mice [1] (setting [5]) is listed as 65.0 ± 10.5 ×10^4/mL. For the same molecule, the “airway-inflammation level (cellular component in BALF)” value in the assay on Balb/c mice [1] (Example 2, text summary of Table 3) is “diminish the airway-inflammation level”. The “penh, early phase” value in the assay on Balb/c mice [2] (Example 2, FIG. 8A, 30 min after rDp2 intratracheal challenge) is “significantly decreased”. The “penh, late phase” value in the assay with Balb/c mice [2] (Example 2, FIG. 8B, 24 hr) was “did not reach a statistically significant level”.

These data come from US20040071718A1, “Local nasal immunotherapy for allergen-induced airway inflammation” (priority 2002, published 2004).
